In assay [1] the test system is brachial plexus (BP) and sciatic nerves (SN) of CD-1 mice. The experiment in a line: Kinetics and dose-response of nerve targeting in small animals. The class given is in vivo, mouse. The method, then:
100 nmol (1.6 mg/kg) of Oxazine was injected intravenously into CD-1 mice, and SBR (BP/Mu) and SBR (SN/Mu) were measured at different time points (T=0, 1, 4, 6, 12, and 24 h). Arrowheads indicate fluorescence signals in nerve bundles. SG=salivary glands; Mu=muscle. Scale bars=1 cm. All NIR fluorescence images have identical exposure times (500 msec) and normalizations. B) Dose-response curve of SBR (mean±SEM) for BP and SN. 0, 50, 100, 200, and 400 nmol of Oxazine 4 were injected intravenously into CD-1 mice, and SBR (BP/Mu) and SBR (SN/Mu) were measured at 4 h post-injection. Arrowheads indicate fluorescence signals in nerve bundles. SG=salivary glands; Mu=muscle. Scale bars=1 cm. All NIR fluorescence images have identical exposure times (500 msec) and normalizations.
Initial in vivo screening occurred in rats based on our previous study of BMB (Supplementary Methods) (25). For kinetic and dose-response studies, 50-400 nmol (0.8-6.3 mg/kg) of Oxazine 4 was injected intravenously into mice and measurements taken over 24 h. Control images were acquired prior to injecting NIR fluorophores. The fluorescence signal in nervous tissues and signal-to-background ratio (SBR) compared to neighboring muscle (Mu) were obtained over the period of imaging. For the large animal study, the optimal dose found in mice (200-400 nmol per mouse) was used in pigs by scaling to body surface area (29, 30).
The fluorescence intensity (FI) and background (BG) intensity of a region of interest (ROI) over each nerve/tissue were calculated and quantified using custom FLARE^a software. The FI of the RLN, BP, and SN at the optimal dose and time point were quantified to measure tissue-specific targeting. Adjacent tissues such as trachea (Tr), thyroid (Th), tracheoesophageal groove (TEG), muscle (Mu), and adipose tissue (Ad) were used as background to calculate the SBR of RLN, BP, and SN in pigs. Statistical analysis was carried out using a one-way ANOVA followed by Tukey's multiple comparisons test. Results were presented as mean±S.D. and curve fitting was performed using Prism version 4.0a software (GraphPad, San Diego, Calif.).

The test system of assay [2] is pig sciatic nerve tissue cross sections. In words: Ex vivo nerve-specific fluorophore screening on nerve tissue sections. To be noted: 100 μM fluorophore, 20 min incubation, pig sciatic nerve sections. Here is the method: Phase contrast image (top) and fluorescence image (bottom) of nerve tissue sections incubated with 100 μM of test fluorophores are shown. Nerve-specific fluorescence intensity was determined using staining of pig sciatic nerve cut in cross section. Nerve tissue sections were incubated in 30% FBS solutions without (negative control, autofluorescence only) and with each fluorophore. As a positive control, previously reported nerve-specific BMB was used. Shown are phase contrast image (top) and fluorescence image (bottom) of nerve tissue sections incubated with 100 μM of each fluorophore. The control autofluorescence images were taken with equivalent exposure time and normalization. Arrowheads indicate fluorescence signals in nerve bundles. Ad=adipose tissue. Scale bars=200 μm. The SBR of each nerve relative to the neighboring adipose tissue was quantified and labeled as—, SBR<1; +, SBR=1−2; and ++, SBR >2.
Sciatic nerves from female Yorkshire pigs were harvested, fixed in 2% paraformaldehyde (PFA), and flash frozen in optimal cutting temperature (OCT) compound using liquid nitrogen. Nerve tissues were cut in cross section using a cryostat at […] thickness onto positively charge glass slides. Tissue sections were washed once with phosphate buffered saline (PBS) for 2 min to remove residual OCT. The tissue was then fixed to the slide with 2% PFA for 15 min, followed by washing with PBS (3×5 min). A formulation was previously developed for intravenous (IV) administration and was used in the current study to incubate the fluorophores with the nerve tissue (25). All fluorophores were mixed from the 100 mM stock solution into the IV formulation at 100 µM and incubated with the washed nerve tissue sections at room temperature for 20 min. Additional IV formulation not containing fluorophore was mixed and used to wash each nerve section twice (5 min per wash) following incubation with the formulated fluorophore. The nerve section was then washed an additional 2 times with PBS (5 min per each), after which coverslips were mounted using Fluoromount-G (Southern Biotech, Birmingham, Ala.).
NIR fluorescence microscopy for ex vivo nerve tissue slides was performed on a Nikon Eclipse TE300 microscope system as previously described (12, 19, 25). The microscope was equipped with a 100 W mercury light source, NIR-compatible optics, and a NIR-compatible 10× Plan Fluor objective lens and a 100× Plan Apo oil immersion objective lens (Nikon, Melville, N.Y.). Images were acquired on an Orca-AG (Hamamatsu, Bridgewater, N.J.). Image acquisition and analysis was performed using IPLab software (Scanalytics, Fairfax, Va.). A custom filter set (Chroma Technology Corporation, Brattleboro, Vt.) composed of a 650±22 nm excitation filter, a 675 nm dichroic mirror, and an 710±25 nm emission filter were used to detect Oxazine derivatives and Rhodamine 800 signals in the nerve tissue slides. For BMB, a mercury light source was passed through a 360±25 nm BP excitation filter, a 400 nm LP beam splitter, and a 550±50 nm emission filter.

`CC/N=c1/cc2oc3cc(NCC)c(C)cc3nc-2cc1C` [Oxazine 4]: in assay [1] (100 nmol (1.6 mg/kg) iv), the “time of highest SBR post-intravenous injection” value is listed as 4 h. Besides, in assay [1] (100 nmol (1.6 mg/kg) iv, 4 h post-injection, BP and SN), the “highest SBR (nerve/muscle)” value is given as “≈ 3.0”. The “SBR at 1 h post-injection” value in assay [1] (100 nmol iv, 1 h) was “low”. Also, in assay [1] (100 nmol iv, 24 h), the “fluorescence signal in nervous tissues at 24 h post-injection” value is recorded as “decayed at this time point to pre-injection levels”. For the same compound, the “dose dependence of fluorescence signals in BP and SN” value in assay [1] (50-400 nmol per mouse (0.8-6.3 mg/kg), 4 h post-injection) is “proportional to the injected dose”. This compound also gave an optimal dose in assay [1] (iv, 4 h post-injection) of 200 nmol. For the same compound, the “nerve-specific fluorescence signal in cross-sectioned nerve” value in assay [2] is “strong fluorescence signal throughout the cross-sectioned nerve”.

For the origin of these results see patent US11001562B2, “Near-infrared fluorescent nerve contrast agents and methods of use thereof” (Beth Israel Deaconess Medical Center, priority 2013, dated 2021).
